One assay addresses T1, Human IDO1 (Homo sapiens, UniProt P14902).
T1 construct: expressed in transfected cells; host or cells: HEK293
The assay is described as follows: IDO Kynurenine Assay with Human IDO1/HEK293 Cells. The assay is classed as cell-based. The settings on record: 20 hours incubation, kynurenine absorbance at 490 nm, read-out: HEK human IDO-1 (IC50). The protocol:
IDO Kynurenine Assay with Human IDO1/HEK293 Cells
Human IDO1/HEK293 cells were seeded at 10,000 cells per 50 uL per well with RPMI/phenol red free media contains 10% FBS in a 384-well black wall clear bottom tissue culture plate (Matrix Technologies LLC) 125 nL of certain concentration of compound was then added to each well using ECHO liquid handling systems. The cells were incubated for 20 hours in 37° C. incubator with 5% CO2.
The compound treatments were stopped by adding Trichloroacetic Acid (Sigma-Aldrich) to a final concentration at 0.2%. The cell plate was further incubated at 50° C. for 30 minute. The equal volume supernatant (20 uL) and 0.2% (w/v) Ehrlich reagent (4-dimethylaminobenzaldehyde, Sigma-Aldrich) in glacial acetic acid were mixed in a new clear bottom 384-well plate. This plate was then incubated at room temperature for 30 minute. The absorbance at 490 nm was measured on Envision plate reader.
Compound IC50 values were calculated using the counts of 500 nM of a reference standard treatment as one hundred percent inhibition, and counts of no compound but DMSO treatment as zero percent inhibition.

Assay [1] has as its target T2, IDO (IFNγ-treated Hela cells) (Homo sapiens, UniProt P14902).
T2 construct: endogenous in cells; host or cells: Hela cells treated with IFNγ (10 ng/ml)
The assay is described as follows: IDO Kynurenine Assay with Hela Cells. The settings on record: IFNγ 10 ng/ml, 20 hours incubation, kynurenine absorbance at 490 nm, read-out: Hela Cells LLE_IDO_ABS_DR (IC50). The assay is classed as cell-based. The procedure: IDO Kynurenine Assay with Hela Cells
Hela cells were seeded at 30,000 cells per well in 40 ul RPMI/phenol red free media contains 10% FBS in a 384-well black wall clear bottom tissue culture plate (Matrix Technologies LLC). 270 nl of certain concentration of compound was then added to each well using ECHO liquid handling systems. 40 ul of IFNγ (R&D, 285-IF-100) at final concentration of 10 ng/ml was then added to column 2-24 with media to column 1 as control. The cells were incubated for 20 hours in 37° C. incubator with 5% CO2.
The compound treatments were stopped by adding trichloroacetic acid (Sigma-Aldrich) to a final concentration at 0.2%. The cell plate was further incubated at 50° C. for 30 minute. The equal volume supernatant (20 uL) and 0.2% (w/v) Ehrlich reagent (4-dimethylaminobenzaldehyde, Sigma-Aldrich) in glacial acetic acid were mixed in a new clear bottom 384-well plate. This plate was then incubated at room temperature for 30 minute. The absorbance at 490 nm was measured on Envision plate reader.
Compound IC50 values were calculated using the counts of no IFNγ control as one hundred percent inhibition, and counts of no compound but DMSO treatment as zero percent inhibition.

SMILES strings stand for the structures.

T1 sequence (P14902 whole entry): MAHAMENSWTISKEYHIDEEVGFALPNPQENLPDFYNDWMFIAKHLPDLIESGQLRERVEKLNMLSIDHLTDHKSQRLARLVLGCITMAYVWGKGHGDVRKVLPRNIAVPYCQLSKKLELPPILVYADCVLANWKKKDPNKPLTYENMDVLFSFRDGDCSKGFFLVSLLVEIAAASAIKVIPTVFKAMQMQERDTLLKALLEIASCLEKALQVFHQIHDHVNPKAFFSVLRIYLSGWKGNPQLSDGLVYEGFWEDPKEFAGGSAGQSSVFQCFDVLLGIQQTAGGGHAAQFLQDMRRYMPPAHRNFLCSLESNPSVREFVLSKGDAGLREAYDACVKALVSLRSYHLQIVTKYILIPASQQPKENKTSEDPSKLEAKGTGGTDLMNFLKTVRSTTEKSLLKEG
T2 sequence (P14902 whole entry): as above

The IC50 is the concentration that gives 50% inhibition. As for `Cc1ccc(CC(=O)Nc2cc(-c3cc(F)ccc3C(=O)O)cc(F)c2N(CC(C)C)C2CCCCC2)cc1` [Example 60], on Human IDO1, the half-maximal inhibitory concentration (IC50) was 30 nM.
`CCC(CC)N(CC(C)C)c1ccc(-c2ccccc2C(=O)O)cc1NC(=O)Cc1ccc(C)cc1` [Example 62]: the IC50 on Human IDO1 is 20 nM.
Regarding `Cc1cc(CC(=O)Nc2cc(-c3cc(F)ccc3C(=O)O)c(F)cc2N(CC(C)C)C2CCCCC2)on1` [Example 87], the half-maximal inhibitory concentration (IC50) at Human IDO1 turned out to be 140 nM.
As for `COC(C)(C)CCN(c1ccc(-c2ccccc2-c2nnn[nH]2)cc1NC(=O)Cc1ccc(C)nc1)C1CCCCC1` [Example 56], on Human IDO1, the half-maximal inhibitory concentration (IC50) came to 7440 nM.
Turning to `CC(C)CN(CC(C)C)c1ccc(-c2ccccc2-c2nnn[nH]2)cc1NC(=O)Cc1ccc(I)cc1` [Example 49, N-(4-(diisobutylamino)-2′-(1H-tetrazol-5-yl)-[1,1′-biphenyl]-3-yl)-2-(4-iodophenyl)acetamide], the IC50 on Human IDO1 stood at 3.17 nM.
The same measure, in the same setting: the value for `CC(C)CN(CCOC(C)C)c1ccc(-c2ccccc2-c2nnn[nH]2)cc1NC(=O)Cc1ccc(C#N)cc1` [Example 69] was 170 nM.
On the same count and under the same terms, with `CCC(CC)N(CC(C)C)c1ccc(-c2ccccc2-c2nnn[nH]2)cc1NC(=O)Cc1ccc(C)cc1` [Example 63] the figure was 4.37 nM; with `Cc1ccc(CC(=O)Nc2cc(-c3ccccc3-c3nnn[nH]3)cc(F)c2N(CC(C)C)C2CCCCC2)cc1` [Example 58], 10 nM; with `CC(C)CN(CC(C)C)c1ccc(-c2ccccc2-c2nnn[nH]2)cc1NC(=O)Cc1cccs1` [Example 65], 20 nM.
As to `CC(C)CN(CCOC(C)C)c1ccc(-c2cc(F)ccc2C(=O)O)cc1NC(=O)Cc1ccc(C#N)cc1` [Example 70], the IC50 on Human IDO1 worked out at 2930 nM.
For the compound `CC(C)CN(c1cc(F)c(-c2ccccc2-c2nnn[nH]2)cc1NC(=O)Cc1ccc(C#N)cc1)C1CCCCC1` [Example 85], the concentration for half-maximal inhibition (IC50) at Human IDO1 turned out to be 40 nM.
Same read-out and setting: with `CC(C)CN(CC(C)C)c1ccc(-c2ccccc2-c2nnn[nH]2)cc1NC(=O)Cc1ccc(Cl)nc1` [Example 67] the figure was 20 nM; with `CC(C)CN(CC(C)C)c1ccc(-c2ccccc2-c2nnn[nH]2)cc1NC(=O)Cc1cc(Br)cs1` [Example 64], 40 nM; with `Cc1cc(CC(=O)Nc2cc(-c3cc(F)ccc3C(=O)O)ccc2N(CC(C)C)C2CCCCC2)on1` [Example 77], 300 nM.
Regarding `CC(C)CN(c1cc(F)c(-c2ccccc2C(=O)O)cc1NC(=O)Cc1ccc(C#N)cc1)C1CCCCC1` [Example 84], the IC50 at Human IDO1 was found to be 30 nM.
Consider `N#Cc1ccc(CC(=O)Nc2cc(-c3ccccc3C(=O)O)ccc2N(CCCC(F)(F)F)C2CCCCC2)cc1` [Example 73], for which, on Human IDO1, the half-inhibitory concentration (IC50) is 2110 nM.
On to `CCCCN(c1ccc(-c2ccccc2-c2nnn[nH]2)cc1NC(=O)Cc1ccccc1F)C1CCCCC1` [Example 10, N-(4-(butyl(cyclohexyl)amino)-2′-(1H-tetrazol-5-yl)-[1,1′-biphenyl]-3-yl)-2-(2-fluorophenyl) acetamide], for which the 50% inhibitory concentration (IC50) in assay [1] amounted to 7.09 nM.
In the case of `Cc1ccc(CC(=O)Nc2cc(-c3ccccc3-c3nnn[nH]3)ccc2N(CC(C)C)CC(C)C)cn1` [Example 55], on Human IDO1, the IC50 amounted to 120 nM.
For the compound `CC(C)CN(CC(C)C)c1ccc(-c2ccccc2-c2nnn[nH]2)cc1NC(=O)Cc1ccc(C(F)(F)F)cc1` [Example 29], in assay [1], the IC50 was 60 nM.
On to `Cc1ccc(CC(=O)Nc2cc(-c3ccccc3-c3nnn[nH]3)ccc2-n2cccn2)cc1` [Example 46, 2-(4-methylphenyl)-N-[2-(1H-pyrazol-1-yl)-5-[2-(1H-1,2,3,4-tetrazol-5-yl)phenyl]phenyl]acetamide], for which the IC50 in assay [1] turned out to be 230 nM.
`CC(C)CN(CCOC(C)C)c1ccc(-c2ccccc2C(=O)O)cc1NC(=O)Cc1ccc(C#N)cc1` [Example 68]: the IC50 on Human IDO1 was determined as 4810 nM.
For the compound `CC(C)CN(c1ccc(-c2ccccc2-c2nnn[nH]2)cc1NC(=O)Cc1ccccc1F)C1CCCCC1` [Example 9, N-(4-(cyclohexyl(isobutyl)amino)-2′-(1H-tetrazol-5-yl)biphenyl-3-yl)-2-(2-fluorophenyl)acetamide], in assay [1], the IC50 was determined as 20 nM.
`Cc1ccc(CC(=O)Nc2cc(-c3ccccc3C(=O)O)cc(F)c2N(CC(C)C)C2CCCCC2)cc1` [Example 59]: the IC50 on Human IDO1 turned out to be 80 nM.
Turning to `O=C(Nc1cc(-c2ccccc2-c2nnn[nH]2)ccc1N1CC2CC1CN2Cc1ccccc1)[C@H](O)c1ccccc1` (stereo partly shown) [Example 83], in assay [1], the half-inhibitory concentration (IC50) was 8920 nM.
With `N#Cc1ccc(CC(=O)Nc2cc(-c3cc(F)ccc3C(=O)O)ccc2N(CCCC(F)(F)F)C2CCCCC2)cc1` [Example 72], at Human IDO1, the 50% inhibitory concentration (IC50) came to 1860 nM.
With `CC(C)CN(CC(C)C)c1ccc(-c2ccccc2-c2nnn[nH]2)cc1NC(=O)Cc1ccsc1` [Example 66], the IC50 at Human IDO1 came to 20 nM.
As to `CC(C)CN(CC(C)C)c1ccc(-c2ccccc2-c2nnn[nH]2)cc1NC(=O)Cc1ccc2c(c1)OCO2` [Example 14, 2-(benzo[d][1,3]dioxol-5-yl)-N-(4-(diisobutylamino)-2′-(1H-tetrazol-5-yl)biphenyl-3-yl)acetamide], in assay [1], the half-inhibitory concentration (IC50) came out at 20 nM.
Take `CC(C)CN(CC(C)C)c1ccc(-c2ccccc2-c2nnn[nH]2)cc1NC(=O)Cc1ccccn1` [Example 30]: the concentration for half-maximal inhibition (IC50) in assay [1] was found to be 300 nM.
Turning to `CC(C)CN(CC(C)C)c1ccc(-c2ccccc2-c2nnn[nH]2)cc1NC(=O)Cc1ccc(C#N)cc1` [Example 43], the 50% inhibitory concentration (IC50) in assay [1] amounted to 5.09 nM.
Turning to `CC(C)CN(CC(C)C)c1ccc(-c2ccccc2-c2nnn[nH]2)cc1NC(=O)Cc1cccc2ccccc12` [Example 24], in assay [1], the IC50 worked out at 80 nM.
On to `CC(C)CN(CC(C)C)c1ccc(-c2ccccc2-c2nnn[nH]2)cc1NC(=O)Oc1ccc(Cl)cc1` [Example 45, 4-Chlorophenyl (4-(diisobutylamino)-2′-(1H-tetrazol-5-yl)-[1,1′-biphenyl]-3-yl)carbamate], for which the concentration for half-maximal inhibition (IC50) in assay [1] amounted to 3900 nM.
Regarding `CC(C)CN(Cc1ccccc1)c1ccc(-c2ccccc2-c2nnn[nH]2)cc1NC(=O)CC(C)(C)C` [Example 47, N-(4-(Benzyl(isobutyl)amino)-2′-(2H-tetrazol-5-yl)biphenyl-3-yl)-3,3-dimethylbutanamide], the 50% inhibitory concentration (IC50) in assay [1] stood at 470 nM.
`CC(C)CN(CC(C)C)c1ccc(-c2ccccc2-c2nnn[nH]2)cc1NC(=O)Oc1ccc2c(c1)OCO2` [Example 51, benzo[d][1,3]dioxol-5-yl (4-(diisobutylamino)-2′-(1H-tetrazol-5-yl)-[1,1′-biphenyl]-3-yl) carbamate]: the IC50 in assay [1] is 3910 nM.
As to `CC(C)CN(CC(C)C)c1ccc(-c2ccccc2-c2nnn[nH]2)cc1NC(=O)Cc1cccc(F)c1` [Example 16, N-(4-(diisobutylamino)-2′-(1H-tetrazol-5-yl)biphenyl-3-yl)-2-(3-fluorophenyl)acetamide], the half-maximal inhibitory concentration (IC50) in assay [1] turned out to be 8.9 nM.
`Cc1ccc(CC(=O)Nc2cc(-c3ccccc3-c3nnn[nH]3)ccc2N(CC(C)C)CC(C)C)c(F)c1` [Example 20, N-(4-(diisobutylamino)-2′-(1H-tetrazol-5-yl)biphenyl-3-yl)-2-(2-fluoro-4-methylphenyl)acetamide]: the half-maximal inhibitory concentration (IC50) in assay [1] came out at 9.11 nM.
The same measure, in the same setting: with `CC(C)CN(CC(C)C)c1ccc(-c2ccccc2-c2nnn[nH]2)cc1NC(=O)Cc1cncc(Br)c1` [Example 44] the figure was 80 nM; with `CC(C)CN(c1ccc(-c2cc(F)ccc2C(=O)O)cc1NC(=O)Cc1ccccc1F)C1CCCCC1` [Example 6, 4′-(cyclohexyl(isobutyl)amino)-5-fluoro-3′-(2-(2-fluorophenyl)acetamido) biphenyl-2-carboxylic acid], 50 nM.

(Values after patent US9895330B2, “IDO inhibitors” (BRISTOL-MYERS SQUIBB COMPANY, priority 2013, dated 2018).)
